Data reported in patent publication US20130324522A1, “INSECT ODORANT RECEPTOR ANTAGONISTS” (THE ROCKEFELLER UNIVERSITY, priority 2010, published 2013).
Where two headings read alike, the source gives them in different places.

How the values were obtained:
OR28/OR7 = OR28/OR7 (Anopheles gambiae, UniProt A0A1S4GFY3+Q7QCC7); test: Ca2+-imaging of stable HEK293T cell line OR28/OR7; type: cell-based; conditions: for inhibition at 4 µM: HEK-293T, read-out: Percent Inhibition OR28 OR7
In short: (§1)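 Fluorescence calcium imaging on stable HEK293T cells expressing mosquito OR paired with Orco-type OR7, or mouse TRPM8. Test compounds are premixed into HBSS odorant solutions and applied to Ca-4-loaded cells; emission at 525 nm (excitation 485 nm) reports Ca2+ influx.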

TRP channel (TRPM8) = target: T1, TRP channel (TRPM8) (Mus musculus, UniProt Q8R4D5); test: Ca2+-imaging of stable HEK293T cell line TRPM8; type: cell-based; conditions: HEK-293T; compound applied at 4 μM; read-out: Percent Inhibition TRPM8
T1 construct: Full-length cDNAs for mosquito (Anopheles gambiae) odorant receptor (OR1, OR2, OR7, OR8, OR28), and fly (Drosophila melanogaster) odorant receptor (Or47a, Or83b), mouse TRP channel (TRPM8); expressed in transfected cells
In short: as §1

Sequence of OR28/OR7 (A0A1S4GFY3 entry or part of it): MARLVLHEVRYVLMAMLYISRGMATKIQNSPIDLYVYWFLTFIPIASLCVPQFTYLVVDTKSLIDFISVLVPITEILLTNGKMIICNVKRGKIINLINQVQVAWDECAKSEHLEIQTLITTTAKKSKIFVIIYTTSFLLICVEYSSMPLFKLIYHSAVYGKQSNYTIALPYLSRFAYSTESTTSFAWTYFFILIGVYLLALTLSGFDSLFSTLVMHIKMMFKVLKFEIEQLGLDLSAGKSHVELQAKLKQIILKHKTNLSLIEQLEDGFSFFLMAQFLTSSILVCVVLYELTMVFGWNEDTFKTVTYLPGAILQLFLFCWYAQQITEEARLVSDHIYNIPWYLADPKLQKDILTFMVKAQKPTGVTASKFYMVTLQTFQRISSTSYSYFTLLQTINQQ
Sequence of OR28/OR7 (Q7QCC7 whole entry): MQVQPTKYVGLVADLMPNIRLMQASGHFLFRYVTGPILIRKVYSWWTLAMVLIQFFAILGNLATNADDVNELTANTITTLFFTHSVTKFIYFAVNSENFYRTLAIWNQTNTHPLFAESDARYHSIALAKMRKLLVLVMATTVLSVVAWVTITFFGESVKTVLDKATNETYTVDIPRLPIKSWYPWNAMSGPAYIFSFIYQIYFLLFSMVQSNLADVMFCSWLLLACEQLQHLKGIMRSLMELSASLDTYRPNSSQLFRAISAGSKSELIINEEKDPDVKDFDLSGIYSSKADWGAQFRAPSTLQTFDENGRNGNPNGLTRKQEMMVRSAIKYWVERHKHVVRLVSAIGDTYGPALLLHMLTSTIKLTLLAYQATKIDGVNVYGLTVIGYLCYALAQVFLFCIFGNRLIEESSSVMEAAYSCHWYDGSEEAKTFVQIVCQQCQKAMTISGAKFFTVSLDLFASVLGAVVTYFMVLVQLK
T1 sequence (Q8R4D5 whole entry): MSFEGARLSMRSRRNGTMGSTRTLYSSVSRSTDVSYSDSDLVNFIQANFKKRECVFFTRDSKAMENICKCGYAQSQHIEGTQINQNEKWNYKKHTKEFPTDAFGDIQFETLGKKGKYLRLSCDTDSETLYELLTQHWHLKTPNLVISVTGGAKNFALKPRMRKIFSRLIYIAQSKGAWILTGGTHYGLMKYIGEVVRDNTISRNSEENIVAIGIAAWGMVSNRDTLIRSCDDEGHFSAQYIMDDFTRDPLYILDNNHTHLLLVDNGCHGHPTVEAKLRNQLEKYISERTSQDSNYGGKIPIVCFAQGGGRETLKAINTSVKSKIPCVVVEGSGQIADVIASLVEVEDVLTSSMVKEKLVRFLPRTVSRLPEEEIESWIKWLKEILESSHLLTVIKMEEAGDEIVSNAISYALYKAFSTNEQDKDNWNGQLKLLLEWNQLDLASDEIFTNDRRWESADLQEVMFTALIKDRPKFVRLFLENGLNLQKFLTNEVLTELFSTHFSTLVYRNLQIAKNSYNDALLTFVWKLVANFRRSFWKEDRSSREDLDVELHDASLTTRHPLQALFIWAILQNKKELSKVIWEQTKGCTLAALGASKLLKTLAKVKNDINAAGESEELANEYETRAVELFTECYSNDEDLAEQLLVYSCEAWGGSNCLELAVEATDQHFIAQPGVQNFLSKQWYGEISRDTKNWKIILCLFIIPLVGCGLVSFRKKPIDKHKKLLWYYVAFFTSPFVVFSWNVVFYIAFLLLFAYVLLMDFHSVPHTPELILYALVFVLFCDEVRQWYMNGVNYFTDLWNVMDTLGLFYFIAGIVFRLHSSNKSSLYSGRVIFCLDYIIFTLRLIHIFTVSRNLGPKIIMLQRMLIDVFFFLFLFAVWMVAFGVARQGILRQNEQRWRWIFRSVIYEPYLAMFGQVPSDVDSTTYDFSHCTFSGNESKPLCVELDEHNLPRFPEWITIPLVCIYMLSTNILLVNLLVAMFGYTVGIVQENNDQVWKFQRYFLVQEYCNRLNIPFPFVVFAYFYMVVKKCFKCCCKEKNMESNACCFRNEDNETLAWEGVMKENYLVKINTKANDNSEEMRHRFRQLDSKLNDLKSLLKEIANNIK

Structure (SMILES): Cc1ccc(-n2nc(C)c(CCC(=O)N3CCc4ccccc4C3)c2C)cc1Cl [RU-0026074]
- inhibition at 4 µM (OR28/OR7; compound applied at 4 μM): > 75%
- inhibition at 4 µM (TRP channel (TRPM8)): 26 to 50%

Structure (SMILES): COc1ccc(C(=O)c2ccccc2)c(O)c1O [RU-0001617]
- inhibition at 4 µM (OR28/OR7; compound applied at 4 μM): 51 to 74%
- IC50 (OR28/OR7; Table B, read-out: IC50 OR28): > 1000 nM
- inhibition at 4 µM (TRP channel (TRPM8)): < 25%

Structure (SMILES): CC(NC(=O)c1cc2n(n1)CCN(Cc1c(Cl)cccc1Cl)C2=O)c1ccccc1 (stereo not shown) [RU-0045115]
- inhibition at 4 µM (OR28/OR7; compound applied at 4 μM): > 75%
- IC50 (OR28/OR7; Table B, read-out: IC50 OR28): < 100 nM
- inhibition at 4 µM (TRP channel (TRPM8)): < 25%

Structure (SMILES): COC(=O)C(Cc1ccccc1)NC(=O)C1CC1(c1ccccc1)c1ccccc1 (stereo not shown) [RU-0028029]
- inhibition at 4 µM (OR28/OR7; compound applied at 4 μM): 51 to 74%
- IC50 (OR28/OR7; Table B, read-out: IC50 OR28): < 100 nM
- inhibition at 4 µM (TRP channel (TRPM8)): 26 to 50%

Structure (SMILES): Cc1cc(C)c2c(c1C(=O)N1CCC3(CC1)C(=O)NCN3c1ccccc1)CC(C)(C)C2=O [RU-0025771]
- inhibition at 4 µM (OR28/OR7; compound applied at 4 μM): > 75%
- inhibition at 4 µM (TRP channel (TRPM8)): 26 to 50%

Structure (SMILES): COCCCN(CC(=O)N1CCc2sccc2C1c1ccc(OC)cc1)C(=O)C(C)(C)CCl (stereo not shown) [RU-0069950]
- inhibition at 4 µM (OR28/OR7; compound applied at 4 μM): > 75%
- IC50 (OR28/OR7; Table B, read-out: IC50 OR28): < 100 nM
- inhibition at 4 µM (TRP channel (TRPM8)): < 25%

Structure (SMILES): Cc1ccc(CN(Cc2ccc(F)cc2)C(=O)CN(C(=O)NC(C)(C)C)C2CC2)s1 [RU-0052360]
- inhibition at 4 µM (OR28/OR7; compound applied at 4 μM): > 75%
- IC50 (OR28/OR7; Table B, read-out: IC50 OR28): 100 to 1000 nM
- inhibition at 4 µM (TRP channel (TRPM8)): 26 to 50%

Structure (SMILES): COc1ccc(-c2nnc(SCc3ccc(C#N)cc3)n2-c2ccc(C)cc2)cc1 [RU-0046426]
- inhibition at 4 µM (OR28/OR7; compound applied at 4 μM): > 75%
- IC50 (OR28/OR7; Table B, read-out: IC50 OR28): > 1000 nM
- inhibition at 4 µM (TRP channel (TRPM8)): < 25%

Structure (SMILES): COCCNC(=O)c1ccc(CSc2nnc(-c3ccc(C)cc3)n2-c2ccccc2F)cc1 [RU-0051652]
- inhibition at 4 µM (OR28/OR7; compound applied at 4 μM): 51 to 74%
- IC50 (OR28/OR7; Table B, read-out: IC50 OR28): > 1000 nM
- inhibition at 4 µM (TRP channel (TRPM8)): < 25%

Structure (SMILES): COCCN(Cc1cc(Cl)ccc1OS(=O)(=O)c1ccc(F)cc1)C(=O)C1CCC1 [RU-0035287]
- inhibition at 4 µM (OR28/OR7; compound applied at 4 μM): > 75%
- IC50 (OR28/OR7; Table B, read-out: IC50 OR28): < 100 nM
- inhibition at 4 µM (TRP channel (TRPM8)): < 25%

Structure (SMILES): COc1ccc(N2CCN(C(=O)C3CC=CCC3C(=O)NCCCCc3ccccc3)CC2)cc1 (stereo not shown) [RU-0026167]
- inhibition at 4 µM (OR28/OR7; compound applied at 4 μM): 51 to 74%
- IC50 (OR28/OR7; Table B, read-out: IC50 OR28): < 100 nM
- inhibition at 4 µM (TRP channel (TRPM8)): 26 to 50%

Structure (SMILES): Cc1ccc(CN(CCc2ccccc2)C(=O)CN(C(=O)NC(C)(C)C)C(C)C)o1 [RU-0072008]
- inhibition at 4 µM (OR28/OR7; compound applied at 4 μM): > 75%
- IC50 (OR28/OR7; Table B, read-out: IC50 OR28): < 100 nM
- inhibition at 4 µM (TRP channel (TRPM8)): < 25%

Structure (SMILES): CC(NCc1ccccc1)c1nc2ccccc2c(=O)n1-c1ccc(Cl)cc1 (stereo not shown) [RU-0072535]
- inhibition at 4 µM (OR28/OR7; compound applied at 4 μM): > 75%
- IC50 (OR28/OR7; Table B, read-out: IC50 OR28): < 100 nM
- inhibition at 4 µM (TRP channel (TRPM8)): < 25%

Structure (SMILES): COc1nc(NC(C)C)nc(NC(C)C)n1 [RU-0001534]
- IC50 (OR28/OR7): < 100 nM
- inhibition at 4 µM (OR28/OR7): > 75%
- inhibition at 4 µM (TRP channel (TRPM8)): < 25%

Structure (SMILES): COCCCN(CC(=O)N1CCc2sccc2C1COc1cccc(OC)c1)C(=O)c1ccccc1OC (stereo not shown) [RU-0036294]
- inhibition at 4 µM (OR28/OR7; compound applied at 4 μM): > 75%
- IC50 (OR28/OR7; Table B, read-out: IC50 OR28): 100 to 1000 nM
- inhibition at 4 µM (TRP channel (TRPM8)): 26 to 50%

Structure (SMILES): C=C[C@@](C)(O)CCC1C(=C)CCC2[C@@](C)(CO)CCC[C@]12C (stereo partly shown) [RU-0001327]
- inhibition at 4 µM (OR28/OR7; compound applied at 4 μM): > 75%
- IC50 (OR28/OR7; Table B, read-out: IC50 OR28): > 1000 nM
- inhibition at 4 µM (TRP channel (TRPM8)): < 25%

Structure (SMILES): COc1cc(OC)cc(C2NC(=O)N(C)C3=C2C(=O)N(C2CCCCC2)C3)c1 (stereo not shown) [RU-0047750]
- inhibition at 4 µM (OR28/OR7; compound applied at 4 μM): > 75%
- IC50 (OR28/OR7; Table B, read-out: IC50 OR28): > 1000 nM
- inhibition at 4 µM (TRP channel (TRPM8)): < 25%

Structure (SMILES): CCN(CC)C(=O)Oc1ccc2c(ccn2Cc2cccc(C)c2)c1NC(=O)[C@H](C)OC(C)=O [RU-0075468]
- inhibition at 4 µM (OR28/OR7; compound applied at 4 μM): > 75%
- IC50 (OR28/OR7; Table B, read-out: IC50 OR28): < 100 nM
- inhibition at 4 µM (TRP channel (TRPM8)): < 25%

Structure (SMILES): CN(C)c1nc(N(C)C)nc(N(C)C)n1 [RU-0000619]
- inhibition at 4 µM (OR28/OR7; compound applied at 4 μM): 51 to 74%
- IC50 (OR28/OR7; Table B, read-out: IC50 OR28): < 100 nM
- inhibition at 4 µM (TRP channel (TRPM8)): < 25%

Structure (SMILES): COc1ccccc1N1CCN(C(=O)c2cc3n(n2)CCN(Cc2c(F)cccc2Cl)C3=O)CC1 [RU-0043595]
- inhibition at 4 µM (OR28/OR7; compound applied at 4 μM): > 75%
- IC50 (OR28/OR7; Table B, read-out: IC50 OR28): < 100 nM
- inhibition at 4 µM (TRP channel (TRPM8)): < 25%

Structure (SMILES): COc1nc(OCC#N)nc(N2CCCCC2)n1 [RU-0006256]
- inhibition at 4 µM (OR28/OR7; compound applied at 4 μM): > 75%
- IC50 (OR28/OR7; Table B, read-out: IC50 OR28): < 100 nM
- inhibition at 4 µM (TRP channel (TRPM8)): 26 to 50%

Structure (SMILES): COCCCN(CC(=O)N1CCc2sccc2C1COc1cccc(OC)c1)C(=O)Cc1ccccc1 (stereo not shown) [RU-0036264]
- inhibition at 4 µM (OR28/OR7; compound applied at 4 μM): 51 to 74%
- IC50 (OR28/OR7; Table B, read-out: IC50 OR28): 100 to 1000 nM
- inhibition at 4 µM (TRP channel (TRPM8)): 26 to 50%

Structure (SMILES): CCOC(=O)C(c1ccc(OC)c(OC)c1)C1C=CC(NC(=O)c2ccc3c(c2)OCO3)C1 (stereo not shown) [RU-0049030]
- inhibition at 4 µM (OR28/OR7; compound applied at 4 μM): > 75%
- IC50 (OR28/OR7; Table B, read-out: IC50 OR28): < 100 nM
- inhibition at 4 µM (TRP channel (TRPM8)): < 25%

Structure (SMILES): CN(Cc1ccccc1)C(=O)CCC1CCN(C(=O)CCOc2ccccc2)CC1 [RU-0028727]
- inhibition at 4 µM (OR28/OR7; compound applied at 4 μM): > 75%
- IC50 (OR28/OR7; Table B, read-out: IC50 OR28): < 100 nM
- inhibition at 4 µM (TRP channel (TRPM8)): 26 to 50%

Structure (SMILES): CCOCCCN(CC(=O)N(Cc1ccc2c(c1)OCO2)Cc1sccc1C)C(=O)NC(C)(C)C [RU-0052340]
- inhibition at 4 µM (OR28/OR7; compound applied at 4 μM): > 75%
- IC50 (OR28/OR7; Table B, read-out: IC50 OR28): < 100 nM
- inhibition at 4 µM (TRP channel (TRPM8)): < 25%

Structure (SMILES): COc1ccc(N2CCN(C(=O)C3CC=CCC3C(=O)NC(c3ccccc3)c3ccccn3)CC2)cc1 (stereo not shown) [RU-0026507]
- inhibition at 4 µM (OR28/OR7; compound applied at 4 μM): > 75%
- IC50 (OR28/OR7; Table B, read-out: IC50 OR28): > 1000 nM
- inhibition at 4 µM (TRP channel (TRPM8)): < 25%

Structure (SMILES): CCOC(=O)C(c1cccc(OC)c1)C1C=CC(NC(=O)c2cccs2)C1 (stereo not shown) [RU-0074560]
- inhibition at 4 µM (OR28/OR7; compound applied at 4 μM): 51 to 74%
- IC50 (OR28/OR7; Table B, read-out: IC50 OR28): > 1000 nM
- inhibition at 4 µM (TRP channel (TRPM8)): < 25%

Structure (SMILES): CCCCc1nc(CN2CCc3c([nH]c4ccccc34)C2c2cccc(OC)c2OC)c[nH]1 (stereo not shown) [RU-0031879]
- inhibition at 4 µM (OR28/OR7; compound applied at 4 μM): > 75%
- IC50 (OR28/OR7; Table B, read-out: IC50 OR28): < 100 nM
- inhibition at 4 µM (TRP channel (TRPM8)): 26 to 50%

Structure (SMILES): CCOc1ccccc1C(=O)NNC(=O)COc1cc(C)cc(C)c1 [RU-0023245]
- inhibition at 4 µM (OR28/OR7; compound applied at 4 μM): > 75%
- IC50 (OR28/OR7; Table B, read-out: IC50 OR28): > 1000 nM
- inhibition at 4 µM (TRP channel (TRPM8)): < 25%

Structure (SMILES): O=C1CN(S(=O)(=O)c2c(F)cc(F)cc2F)CC2c3cccc(F)c3CCN12 (stereo not shown) [RU-0076832]
- inhibition at 4 µM (OR28/OR7; compound applied at 4 μM): > 75%
- IC50 (OR28/OR7; Table B, read-out: IC50 OR28): < 100 nM
- inhibition at 4 µM (TRP channel (TRPM8)): < 25%
